From PMC10460844, “Real‐Time Monitoring of Multitarget Antimicrobial Mechanisms of Peptoids Using Label‐Free Imaging with Optical Diffraction Tomography” (Advanced Science, 2023)
Square brackets hold non-standard residues; d marks the D form. Peptide text beside a SMILES is read from it. Gly(N(CH2)2(3-indolyl)) = O=C(O)CNCCc1c[nH]c2ccccc12; Nspe = C[C@H](NCC(=O)O)c1ccccc1; Nlys = NCCCCNCC(=O)O

How the values were obtained:
[1] = Analytical reversed-phase HPLC elution (hydrophobicity); assay type: physicochemical; conditions: Table S1; analytical RP-HPLC, SunFire C18, water/ACN + 0.1% TFA, 5 to 100% B linear over 30 min, 1 mL/min, UV 220 nm; approximate comparison of hydrophobicity
Protocol: 7. HPLC chromatogram, retention time (tR), and LC-MS data
HPLC analysis of peptoids was conducted using a Waters HPLC system equipped with a Waters 2489 UV/Visible Detector, 1525 Binary HPLC Pump, 2707 Autosampler, 5CH column oven, and a C18 column (SunFire C18, 4.6 × 250 mm, 5 μm; Waters Corp., Milford, MA, USA). The mobile phases were deionized water (A, with + 0.1% TFA) and acetonitrile (ACN; B, with + 0.1% TFA). Before sample injection, the column was conditioned with 5% B for 10 min. Then, the mobile phase was maintained at 5% B for 2 min, followed by increasing B to 100% using a linear gradient over 30 min. At this point, 100% B was maintained for 5 additional min. The flow rate of the mobile phase was 1 mL/min. The sample was detected by measuring absorbance at 220 nm. […]

[2] = test system: rat erythrocytes; experiment: Hemolysis assay; assay type: cell-based; conditions: for HC10 / HC50: pH 7.4
Protocol: The hemolysis assay was performed using rat erythrocytes in phosphate‐buffered saline (PBS), as reported by Mendes et al.^[ [45] ^] Animal studies were approved by the Laboratory Animal Resource Center of Gwangju Institute of Science and Technology. Blood was collected from a 13‐week‐old male Sprague‐Dawley rat in tubes containing 158 USP units of sodium heparin to prevent coagulation and centrifuged at 1000 rpm for 10 min at 4 °C. Plasma was removed carefully and erythrocyte pellets were washed three times with PBS (35 mM phosphate, pH 7.4, 150 mM NaCl). Next, 150 µL of a 10% erythrocyte suspension was mixed with 50 µL of serially diluted peptoids (0–100 µM) in a 96‐well black polypropylene plates (Greiner, Kremsmünster, Austria). Untreated erythrocytes and cells lysed by the addition of 1% Triton X‐100 were used as negative and positive controls, respectively, with the 1% Triton X‐100‐treated wells being accepted to represent 100% hemolysis. The reaction mixture was incubated at 37 °C for 60 min, and the plates were centrifuged at 1000 rpm for 15 min. Aliquots (150 µL) of the supernatant were transferred to fresh 96‐well plates, and the absorbance of each well was measured at 540 nm using a microplate reader. Hemolysis induced by peptoids was calculated as the percentage value of Triton X‐100 lysed cells. The percentage of hemolysis by the extracts was calculated according to the following formula: % hemolysis = [(Abs 540 nm in the peptoid solution – Abs 540 nm in PBS) / (Abs 540 nm in 1% Triton X‐100 – Abs 540 nm in PBS)] × 100. HC10 and HC50 were defined as the peptoid concentrations that caused 10% and 50% hemolysis in rat erythrocytes, respectively. H max indicates the percentage of hemolysis observed at the maximum peptoid concentration, 100 µM throughout this study.

Compound	HPLC elution [1]	Hmax (100 µM) [2]	HC10 [2]	HC50 [2]
C[C@@H](c1ccccc1)N(CC(=O)N(CCCCN)CC(=O)N(CC(=O)N(CC(=O)N(CCCCN)CC(=O)N(CC(=O)N(CC(=O)N(CCCCN)CC(=O)N(CC(=O)N(CC(=O)N(CCc1c[nH]c2ccccc12)CC(N)=O)[C@@H](C)c1ccccc1)[C@@H](C)c1ccccc1)[C@@H](C)c1ccccc1)[C@@H](C)c1ccccc1)[C@@H](C)c1ccccc1)[C@@H](C)c1ccccc1)C(=O)CN(C(=O)CNCCCCN)[C@@H](C)c1ccccc1 [peptoid 4] (H-[Nlys][Nspe][Nspe][Nlys][Nspe][Nspe][Nlys][Nspe][Nspe][Nlys][Nspe][Nspe][Gly(N(CH2)2(3-indolyl))]-NH2)	57.0 % MeCN	103.2±0.9%	< 6.3 µM	6.7 µM
C[C@@H](c1ccccc1)N(CC(=O)N(CCCCN)CC(=O)N(CC(=O)N(CC(=O)N(CCCCN)CC(=O)N(CC(=O)N(CC(=O)N(CCCCN)CC(=O)N(CC(=O)N(CC(=O)N(CCc1c[nH]c2ccccc12)CC(N)=O)[C@@H](C)c1ccccc1)[C@@H](C)c1ccccc1)[C@@H](C)c1ccccc1)[C@@H](C)c1ccccc1)[C@@H](C)c1ccccc1)[C@@H](C)c1ccccc1)C(=O)CN(C(=O)CN(CCCCN)C(=O)CNCCc1c[nH]c2ccccc12)[C@@H](C)c1ccccc1 [peptoid 5] (H-[Gly(N(CH2)2(3-indolyl))][Nlys][Nspe][Nspe][Nlys][Nspe][Nspe][Nlys][Nspe][Nspe][Nlys][Nspe][Nspe][Gly(N(CH2)2(3-indolyl))]-NH2)	58.6 % MeCN	108.1±2.7%	< 6.3 µM	15.3 µM
C[C@@H](c1ccccc1)N(CC(N)=O)C(=O)CN(C(=O)CN(CCCCN)C(=O)CN(C(=O)CN(C(=O)CN(CCCCN)C(=O)CN(C(=O)CN(C(=O)CN(CCCCN)C(=O)CN(C(=O)CN(C(=O)CN(CCCCN)C(=O)CN(CCc1c[nH]c2ccccc12)C(=O)CNCCc1c[nH]c2ccccc12)[C@@H](C)c1ccccc1)[C@@H](C)c1ccccc1)[C@@H](C)c1ccccc1)[C@@H](C)c1ccccc1)[C@@H](C)c1ccccc1)[C@@H](C)c1ccccc1)[C@@H](C)c1ccccc1 [peptoid 6]	57.2 % MeCN	101.6±5.8%	9.6 µM	22.0 µM
C[C@@H](c1ccccc1)N(CC(=O)N(CCc1c[nH]c2ccccc12)CC(N)=O)C(=O)CN(CCCCN)C(=O)CN(C(=O)CN(C(=O)CN(CCCCN)C(=O)CN(C(=O)CN(C(=O)CN(CCCCN)C(=O)CN(C(=O)CN(C(=O)CNCCCCN)[C@@H](C)c1ccccc1)[C@@H](C)c1ccccc1)[C@@H](C)c1ccccc1)[C@@H](C)c1ccccc1)[C@@H](C)c1ccccc1)[C@@H](C)c1ccccc1 [peptoid 7] (H-[Nlys][Nspe][Nspe][Nlys][Nspe][Nspe][Nlys][Nspe][Nspe][Nlys][Nspe][Gly(N(CH2)2(3-indolyl))]-NH2)	54.1 % MeCN	94.1±4.3%	7.8 µM	23.8 µM
C[C@@H](c1ccccc1)N(CC(N)=O)C(=O)CN(C(=O)CN(CCCCN)C(=O)CN(CCc1c[nH]c2ccccc12)C(=O)CN(C(=O)CN(CCCCN)C(=O)CN(C(=O)CN(C(=O)CN(CCCCN)C(=O)CN(C(=O)CN(C(=O)CNCCCCN)[C@@H](C)c1ccccc1)[C@@H](C)c1ccccc1)[C@@H](C)c1ccccc1)[C@@H](C)c1ccccc1)[C@@H](C)c1ccccc1)[C@@H](C)c1ccccc1 [peptoid 8]	54.5 % MeCN	105.1±2.2%	12.8 µM	28.4 µM
C[C@@H](c1ccccc1)N(CC(N)=O)C(=O)CN(C(=O)CN(CCCCN)C(=O)CN(CCc1c[nH]c2ccccc12)C(=O)CN(CCc1c[nH]c2ccccc12)C(=O)CN(CCCCN)C(=O)CN(C(=O)CN(C(=O)CN(CCCCN)C(=O)CN(C(=O)CN(C(=O)CNCCCCN)[C@@H](C)c1ccccc1)[C@@H](C)c1ccccc1)[C@@H](C)c1ccccc1)[C@@H](C)c1ccccc1)[C@@H](C)c1ccccc1 [peptoid 12]	55.9 % MeCN	87.4±2.4%	29.1 µM	65.2 µM
C[C@@H](c1ccccc1)N(CC(N)=O)C(=O)CN(C(=O)CN(CCCCN)C(=O)CN(C(=O)CN(C(=O)CN(CCCCN)C(=O)CN(CCc1c[nH]c2ccccc12)C(=O)CN(CCc1c[nH]c2ccccc12)C(=O)CN(CCCCN)C(=O)CN(C(=O)CN(C(=O)CNCCCCN)[C@@H](C)c1ccccc1)[C@@H](C)c1ccccc1)[C@@H](C)c1ccccc1)[C@@H](C)c1ccccc1)[C@@H](C)c1ccccc1 [peptoid 13]	56.0 % MeCN	96.8±1.6%	20.2 µM	41.3 µM
C[C@@H](c1ccccc1)N(CC(=O)N(CCc1c[nH]c2ccccc12)CC(=O)N(CCCCN)CC(=O)N(CC(=O)N(CC(=O)N(CCCCN)CC(=O)N(CC(=O)N(CC(=O)N(CCCCN)CC(=O)N(CC(=O)N(CCc1c[nH]c2ccccc12)CC(N)=O)[C@@H](C)c1ccccc1)[C@@H](C)c1ccccc1)[C@@H](C)c1ccccc1)[C@@H](C)c1ccccc1)[C@@H](C)c1ccccc1)C(=O)CNCCCCN [peptoid 16] (H-[Nlys][Nspe][Gly(N(CH2)2(3-indolyl))][Nlys][Nspe][Nspe][Nlys][Nspe][Nspe][Nlys][Nspe][Gly(N(CH2)2(3-indolyl))]-NH2)	54.7 % MeCN	100.3±1.7%	13.8 µM	25.0 µM
C[C@@H](c1ccccc1)N(CC(=O)N(CCCCN)CC(=O)N(CC(=O)N(CC(=O)N(CCCCN)CC(=O)N(CC(=O)N(CC(=O)N(CCCCN)CC(=O)N(CC(=O)N(CCc1c[nH]c2ccccc12)CC(N)=O)[C@@H](C)c1ccccc1)[C@@H](C)c1ccccc1)[C@@H](C)c1ccccc1)[C@@H](C)c1ccccc1)[C@@H](C)c1ccccc1)C(=O)CN(CCc1c[nH]c2ccccc12)C(=O)CNCCCCN [peptoid 17] (H-[Nlys][Gly(N(CH2)2(3-indolyl))][Nspe][Nlys][Nspe][Nspe][Nlys][Nspe][Nspe][Nlys][Nspe][Gly(N(CH2)2(3-indolyl))]-NH2)	56.0 % MeCN	87.3±6.7%	18.0 µM	39.7 µM
C[C@@H](c1ccccc1)N(CC(=O)N(CCCCN)CC(=O)N(CC(=O)N(CC(=O)N(CCCCN)CC(=O)N(CCc1c[nH]c2ccccc12)CC(=O)N(CCc1c[nH]c2ccccc12)CC(N)=O)[C@@H](C)c1ccccc1)[C@@H](C)c1ccccc1)C(=O)CN(C(=O)CN(CCCCN)C(=O)CN(CCc1c[nH]c2ccccc12)C(=O)CN(CCc1c[nH]c2ccccc12)C(=O)CNCCCCN)[C@@H](C)c1ccccc1 [peptoid 18] (H-[Nlys][Gly(N(CH2)2(3-indolyl))][Gly(N(CH2)2(3-indolyl))][Nlys][Nspe][Nspe][Nlys][Nspe][Nspe][Nlys][Gly(N(CH2)2(3-indolyl))][Gly(N(CH2)2(3-indolyl))]-NH2)	53.8 % MeCN	103.5±4.3%	14.3 µM	37.8 µM
C[C@@H](c1ccccc1)N(CC(=O)N(CCCCN)CC(=O)N(CC(=O)N(CC(=O)N(CCCCN)CC(=O)N(CCc1c[nH]c2ccccc12)CC(=O)N(CCc1c[nH]c2ccccc12)CC(=O)N(CCCCN)CC(=O)N(CCc1c[nH]c2ccccc12)CC(=O)N(CCc1c[nH]c2ccccc12)CC(N)=O)[C@@H](C)c1ccccc1)[C@@H](C)c1ccccc1)C(=O)CN(C(=O)CNCCCCN)[C@@H](C)c1ccccc1 [peptoid 19] (H-[Nlys][Nspe][Nspe][Nlys][Nspe][Nspe][Nlys][Gly(N(CH2)2(3-indolyl))][Gly(N(CH2)2(3-indolyl))][Nlys][Gly(N(CH2)2(3-indolyl))][Gly(N(CH2)2(3-indolyl))]-NH2)	52.8 % MeCN	101.5±1.3%	3.8 µM	12.5 µM
C[C@@H](c1ccccc1)N(CC(N)=O)C(=O)CN(C(=O)CN(CCCCN)C(=O)CN(CCc1c[nH]c2ccccc12)C(=O)CN(CCc1c[nH]c2ccccc12)C(=O)CN(CCCCN)C(=O)CN(CCc1c[nH]c2ccccc12)C(=O)CN(CCc1c[nH]c2ccccc12)C(=O)CN(CCCCN)C(=O)CN(C(=O)CN(C(=O)CNCCCCN)[C@@H](C)c1ccccc1)[C@@H](C)c1ccccc1)[C@@H](C)c1ccccc1 [peptoid 20]	52.7 % MeCN	106.7±3.5%	8.2 µM	33.9 µM
